# Results as given in publication PMC8951016, “Computational Design and Biological Evaluation of Analogs of Lupin Peptide P5 Endowed with Dual PCSK9/HMG-CoAR Inhibiting Activity” (Pharmaceutics, 2022).
# System: SREBP-2
# Experiment: Western blot, SREBP-2 protein level in HepG2
# Type: cell-based, human
# Details: 50 µM, 24 h
# Description: A total of 1.5 × 10^5 HepG2 cells/well (24-well plate) were treated with 50 μM of P5 and P5 analogs for 24 h. Immunoblotting experiments were performed using optimized protocol. See Supplementary Materials for further details.
# PBS for 1.5 h at RT. LDLR primary antibody solution (1:3000 in 5% BSA in PBS, 25 µL/well) was incubated O/N at +4 °C. Subsequently, the primary antibody solution was discarded and each sample was washed 5 times with 100 µL/well of PBS (each wash was for 5 min at RT). Goat anti-rabbit Ig-HRP secondary antibody solution (Santa Cruz) (1:6000 in 5% BSA in PBS, 50 µL/well), was added and incubated 1 h at RT. […] The reaction was stopped with 2 M H2SO4 and then the absorbance at 450 nm was measured using the microplate reader Synergy H1 (Winoo-ski, VT, USA). After the read, cells were stained by adding 1 X Janus Green stain, incubat-ing for 5 min at RT. […]
# Afterward 100 µL 0.5 M HCl for well were added and incubated for 10 min. After 10 sec-onds shaking, the OD at 595 nm was measured using the microplate reader Synergy H1 […]
# Fluorescent LDL Uptake. […] The degree of LDL uptake was measured using the Synergy H1 fluo-rescent plate reader (Winooski, VT, USA) (excitation and emission wavelengths 540 and 570 nm, respectively). Fluorescent LDL-uptake was finally assessed following optimized […]
sequence,measurement,value
"LILPKHSDAD [Peptide P5, natural peptide derived from a peptic lupin protein hydrolysate]","SREBP-2 protein level (words, P5)",upregulation of the SREBP-2 transcription factor level
